From ChEMBL document CHEMBL1201862, “PubChem BioAssay data set” (2004)
Calls of active or inactive are those of the source.

Assays:
[1] = mRNA 3' processing disruption, beta-gal signal increase – luminescence, S. cerevisiae SKY197-pL101, dose response (AID 2525); type: functional, cell-based
HEK293 = assay: EBV LMP1 TES2 canonical NF-kB signalling blockers – cell-based, HEK293, luciferase, cherry-pick, dose response (AID 588343); type: functional; details: Homo sapiens
[2] = Luminescence Cell-Based Dose Confirmation HTS to Identify Inhibitors of Polyadenylation.; type: functional
[3] = target: T1, Rac GTPase-activating protein 1 (Homo sapiens, UniProt Q9H0H5); assay: blockers of MgcRacGAP-driven Rac1 GTP hydrolysis – biochemical, ADP Hunter fluorescence, primary and confirmatory, confirmation (AID 624330); type: functional
T1 sequence (Q9H0H5 whole entry): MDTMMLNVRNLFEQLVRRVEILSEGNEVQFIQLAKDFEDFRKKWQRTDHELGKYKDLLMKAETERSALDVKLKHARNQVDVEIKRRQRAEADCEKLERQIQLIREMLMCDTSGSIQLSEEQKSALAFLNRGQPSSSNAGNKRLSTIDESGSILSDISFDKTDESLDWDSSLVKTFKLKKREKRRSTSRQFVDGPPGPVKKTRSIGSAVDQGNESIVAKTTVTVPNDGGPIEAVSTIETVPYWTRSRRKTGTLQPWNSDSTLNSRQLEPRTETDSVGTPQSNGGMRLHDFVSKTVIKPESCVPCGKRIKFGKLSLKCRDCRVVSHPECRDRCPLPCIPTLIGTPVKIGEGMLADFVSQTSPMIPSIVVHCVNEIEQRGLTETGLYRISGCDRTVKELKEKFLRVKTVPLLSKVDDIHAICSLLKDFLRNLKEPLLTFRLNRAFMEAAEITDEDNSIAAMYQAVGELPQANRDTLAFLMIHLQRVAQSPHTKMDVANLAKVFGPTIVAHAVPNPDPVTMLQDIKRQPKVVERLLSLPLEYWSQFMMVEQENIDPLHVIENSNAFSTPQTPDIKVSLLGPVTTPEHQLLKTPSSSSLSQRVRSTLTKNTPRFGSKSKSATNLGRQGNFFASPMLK

[4] = target: T2, Eukaryotic translation initiation factor 2-alpha kinase 3 (Homo sapiens, UniProt Q9NZJ5); assay: Counterscreen assay for PERK inhibitors: Dose response cell-based high throughput screening assay to measure inhibition of PERK at 6 hours. [Related pubchem assays: 1522, 1416 ]; type: functional
[5] = target: T2, Eukaryotic translation initiation factor 2-alpha kinase 3; assay: Dose response cell-based high-throughput screening assay to measure PERK inhibition. [Related pubchem assays: 1416 ]; type: functional
INS1 = assay: INS-1E survival protection against cytokine death – cell-based, luminescence, retest, dose response (AID 449756); type: functional; details: Rattus norvegicus;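 also: cell death triggered by IL-1 beta plus TNF-alpha plus IFN-gamma mixture; protective hits raise ATP signal compared with cytokine alone wells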
Hexokinase HKDC1 = target: T3, Hexokinase HKDC1 (Homo sapiens, UniProt Q2TB90); assay: inhibition of HKDC1 glucose phosphorylation – biochemical, W721R variant, dose response (AID 504729); type: functional
T3 sequence (Q2TB90 whole entry): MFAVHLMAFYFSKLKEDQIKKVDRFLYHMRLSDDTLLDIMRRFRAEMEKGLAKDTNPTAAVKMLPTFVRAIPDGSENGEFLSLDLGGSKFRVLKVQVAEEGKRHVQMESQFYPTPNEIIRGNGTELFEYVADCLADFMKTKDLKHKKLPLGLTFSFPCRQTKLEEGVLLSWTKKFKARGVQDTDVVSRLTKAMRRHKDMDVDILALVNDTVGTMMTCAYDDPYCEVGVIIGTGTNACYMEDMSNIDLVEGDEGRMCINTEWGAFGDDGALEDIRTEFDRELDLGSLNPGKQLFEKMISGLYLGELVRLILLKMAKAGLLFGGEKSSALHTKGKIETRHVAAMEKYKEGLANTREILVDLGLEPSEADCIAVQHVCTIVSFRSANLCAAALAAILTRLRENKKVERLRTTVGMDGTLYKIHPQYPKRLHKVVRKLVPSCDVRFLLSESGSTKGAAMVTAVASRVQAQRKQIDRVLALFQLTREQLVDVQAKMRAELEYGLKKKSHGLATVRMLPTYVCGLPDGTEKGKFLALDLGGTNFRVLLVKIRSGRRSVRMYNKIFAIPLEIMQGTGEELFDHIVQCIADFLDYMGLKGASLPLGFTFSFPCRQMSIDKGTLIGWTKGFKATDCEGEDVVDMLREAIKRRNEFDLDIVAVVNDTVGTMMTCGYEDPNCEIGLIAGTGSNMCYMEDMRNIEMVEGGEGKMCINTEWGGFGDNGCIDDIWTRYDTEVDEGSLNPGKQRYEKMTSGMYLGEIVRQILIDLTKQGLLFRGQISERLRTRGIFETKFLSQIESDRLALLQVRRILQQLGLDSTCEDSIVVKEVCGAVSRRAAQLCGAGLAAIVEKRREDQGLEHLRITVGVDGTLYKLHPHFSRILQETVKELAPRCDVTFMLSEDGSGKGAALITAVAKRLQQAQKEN

[6] = target: T4, RNA-binding protein pos-1 (Caenorhabditis elegans, UniProt G5EF15); assay: disruptors of C. elegans POS-1 RNA interaction – biochemical, fluorescence polarization, dose response (AID 1964);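 also: purified POS-1 fused to maltose binding protein made in E. coli; potency of compounds blocking POS-1 binding to fluorescent RNA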
T4 sequence (G5EF15 whole entry): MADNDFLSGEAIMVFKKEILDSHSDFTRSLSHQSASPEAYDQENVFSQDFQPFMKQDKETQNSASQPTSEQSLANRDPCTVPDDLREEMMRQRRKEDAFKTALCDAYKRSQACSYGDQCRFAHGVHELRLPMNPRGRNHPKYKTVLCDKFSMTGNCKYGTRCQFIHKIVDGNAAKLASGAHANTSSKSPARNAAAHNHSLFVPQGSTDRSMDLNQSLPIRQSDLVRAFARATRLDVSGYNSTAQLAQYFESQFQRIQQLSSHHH

[7] = target: Female germline-specific tumor suppressor gld-1 (Caenorhabditis elegans, UniProt Q17339); assay: blockers of GLD-1/TGE RNA complex formation – biochemical, fluorescence polarization, C. elegans, dose response (AID 2802);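 also: fluorescence polarization of labeled TGE RNA bound by purified gld-1 protein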
Protein Rev = Protein Rev (Human immunodeficiency virus type 1 group M subtype B (isolate HXB2)(HIV-1), UniProt P04618); assay: blockers of HIV Rev/RRE RNA complex – biochemical, fluorescence polarization, HIV-1, dose response (AID 434976); set-up: species or system Human immunodeficiency virus 1
[8] = target: T5, Zinc finger protein mex-5 (Caenorhabditis elegans, UniProt Q9XUB2); assay: potency of MEX-5 RNA-binding blockers – biochemical, C. elegans, fluorescence polarization, dose response (AID 1960)
T5 sequence (Q9XUB2 whole entry): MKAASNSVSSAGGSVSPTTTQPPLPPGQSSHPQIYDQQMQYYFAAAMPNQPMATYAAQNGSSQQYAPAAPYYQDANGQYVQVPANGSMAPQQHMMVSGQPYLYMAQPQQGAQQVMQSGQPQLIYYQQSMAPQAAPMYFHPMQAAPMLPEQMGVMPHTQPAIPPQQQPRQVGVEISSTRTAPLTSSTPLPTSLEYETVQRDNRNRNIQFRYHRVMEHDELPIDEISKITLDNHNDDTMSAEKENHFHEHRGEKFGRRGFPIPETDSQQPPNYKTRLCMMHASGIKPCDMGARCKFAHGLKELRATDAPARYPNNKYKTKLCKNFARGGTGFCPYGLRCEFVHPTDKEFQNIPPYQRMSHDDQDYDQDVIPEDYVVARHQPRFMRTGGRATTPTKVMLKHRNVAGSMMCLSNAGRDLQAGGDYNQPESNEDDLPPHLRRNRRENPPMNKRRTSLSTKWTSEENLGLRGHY

[9] = target: T6, DNA repair and recombination protein RAD54-like (Homo sapiens, UniProt Q92698); assay: RAD54 Holliday junction migration blockers – biochemical, fluorescence, cherry-picked samples, dose series, confirmation (AID 651657); type: functional
T6 sequence (Q92698 whole entry): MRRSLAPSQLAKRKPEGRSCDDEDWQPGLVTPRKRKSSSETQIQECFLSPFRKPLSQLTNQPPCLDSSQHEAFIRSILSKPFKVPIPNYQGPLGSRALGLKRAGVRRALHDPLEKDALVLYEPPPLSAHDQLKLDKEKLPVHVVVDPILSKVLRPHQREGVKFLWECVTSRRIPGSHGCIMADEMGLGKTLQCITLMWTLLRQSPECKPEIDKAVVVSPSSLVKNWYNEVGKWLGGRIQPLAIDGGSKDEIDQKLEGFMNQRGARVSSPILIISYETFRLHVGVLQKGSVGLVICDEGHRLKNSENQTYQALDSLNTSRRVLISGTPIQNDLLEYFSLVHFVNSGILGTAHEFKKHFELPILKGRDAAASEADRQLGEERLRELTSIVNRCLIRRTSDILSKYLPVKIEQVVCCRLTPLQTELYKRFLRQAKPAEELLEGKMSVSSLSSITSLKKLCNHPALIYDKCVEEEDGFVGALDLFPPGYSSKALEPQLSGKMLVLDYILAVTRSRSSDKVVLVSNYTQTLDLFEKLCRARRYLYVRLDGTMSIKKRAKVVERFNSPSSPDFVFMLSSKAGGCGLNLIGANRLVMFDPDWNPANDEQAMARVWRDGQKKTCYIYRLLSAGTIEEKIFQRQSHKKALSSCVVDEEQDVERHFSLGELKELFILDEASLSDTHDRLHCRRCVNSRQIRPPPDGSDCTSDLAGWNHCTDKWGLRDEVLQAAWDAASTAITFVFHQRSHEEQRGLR

[10] = target: Lysosomal acid glucosylceramidase (Homo sapiens, UniProt P04062); assay: Dose response cell-based high throughput screening assay to identify enhancers of beta-glucosidase activity. [Related pubchem assays: 784 ]; type: functional
Aminopeptidase N = target: T7, Aminopeptidase N (Plasmodium falciparum FcB1/Columbia, UniProt O96935); assay: malaria alanyl aminopeptidase activity blockers – biochemical, fluorogenic H-Leu-NHMec substrate, 1536-well (AID 1445); set-up: species or system Plasmodium falciparum 3D7, 3D7
T7 sequence (O96935 whole entry): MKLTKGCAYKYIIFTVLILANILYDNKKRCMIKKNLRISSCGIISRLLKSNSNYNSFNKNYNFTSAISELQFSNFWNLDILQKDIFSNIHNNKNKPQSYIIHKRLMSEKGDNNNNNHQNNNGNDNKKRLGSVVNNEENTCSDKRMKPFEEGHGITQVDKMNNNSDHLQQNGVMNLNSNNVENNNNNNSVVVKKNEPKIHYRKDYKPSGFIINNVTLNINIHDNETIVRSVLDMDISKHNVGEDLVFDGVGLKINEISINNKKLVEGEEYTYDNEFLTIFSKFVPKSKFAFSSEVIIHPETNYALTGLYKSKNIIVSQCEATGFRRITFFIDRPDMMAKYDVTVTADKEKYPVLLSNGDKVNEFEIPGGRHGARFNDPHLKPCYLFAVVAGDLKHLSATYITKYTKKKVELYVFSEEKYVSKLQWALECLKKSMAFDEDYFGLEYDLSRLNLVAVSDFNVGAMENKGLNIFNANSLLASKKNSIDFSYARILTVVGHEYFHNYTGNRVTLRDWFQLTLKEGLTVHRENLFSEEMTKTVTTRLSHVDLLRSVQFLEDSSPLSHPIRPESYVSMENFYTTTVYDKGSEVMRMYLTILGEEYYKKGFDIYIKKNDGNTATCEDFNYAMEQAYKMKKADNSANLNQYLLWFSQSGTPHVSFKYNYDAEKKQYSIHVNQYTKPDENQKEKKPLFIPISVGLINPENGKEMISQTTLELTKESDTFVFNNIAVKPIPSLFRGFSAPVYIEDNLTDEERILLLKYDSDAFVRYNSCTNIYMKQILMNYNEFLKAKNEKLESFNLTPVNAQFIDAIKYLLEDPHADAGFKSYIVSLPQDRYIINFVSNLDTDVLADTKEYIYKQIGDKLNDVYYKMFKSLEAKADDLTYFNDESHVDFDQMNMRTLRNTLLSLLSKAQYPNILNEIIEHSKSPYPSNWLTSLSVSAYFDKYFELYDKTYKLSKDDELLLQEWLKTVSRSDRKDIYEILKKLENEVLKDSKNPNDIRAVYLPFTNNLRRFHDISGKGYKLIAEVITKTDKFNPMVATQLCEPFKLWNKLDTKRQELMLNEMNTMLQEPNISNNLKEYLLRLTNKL

Cytochrome P450 1A2 = target: T8, Cytochrome P450 1A2 (Homo sapiens, UniProt P05177);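 also: PubChem cytochrome P450 panel assay, CYP1A2 panel member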
T8 sequence (P05177 whole entry): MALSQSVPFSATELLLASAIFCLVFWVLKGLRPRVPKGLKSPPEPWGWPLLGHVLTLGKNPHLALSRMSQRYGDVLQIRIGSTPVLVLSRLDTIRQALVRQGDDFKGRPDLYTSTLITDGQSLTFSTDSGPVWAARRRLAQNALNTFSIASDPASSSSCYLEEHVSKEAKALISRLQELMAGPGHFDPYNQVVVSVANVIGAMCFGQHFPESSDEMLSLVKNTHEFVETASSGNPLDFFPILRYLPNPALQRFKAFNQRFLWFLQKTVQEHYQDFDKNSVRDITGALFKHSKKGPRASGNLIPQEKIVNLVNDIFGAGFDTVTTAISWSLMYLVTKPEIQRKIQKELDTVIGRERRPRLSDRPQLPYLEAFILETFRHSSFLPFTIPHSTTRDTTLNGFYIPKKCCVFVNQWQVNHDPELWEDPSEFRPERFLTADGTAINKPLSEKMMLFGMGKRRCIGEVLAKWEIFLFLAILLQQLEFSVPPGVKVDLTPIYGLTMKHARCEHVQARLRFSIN

Cytochrome P450 2D6 = Cytochrome P450 2D6 (Homo sapiens, UniProt P10635);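 also: CYP2D6 member of a cytochrome P450 panel assay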
Chain of Cytochrome P450 2D6 (P10635 whole entry): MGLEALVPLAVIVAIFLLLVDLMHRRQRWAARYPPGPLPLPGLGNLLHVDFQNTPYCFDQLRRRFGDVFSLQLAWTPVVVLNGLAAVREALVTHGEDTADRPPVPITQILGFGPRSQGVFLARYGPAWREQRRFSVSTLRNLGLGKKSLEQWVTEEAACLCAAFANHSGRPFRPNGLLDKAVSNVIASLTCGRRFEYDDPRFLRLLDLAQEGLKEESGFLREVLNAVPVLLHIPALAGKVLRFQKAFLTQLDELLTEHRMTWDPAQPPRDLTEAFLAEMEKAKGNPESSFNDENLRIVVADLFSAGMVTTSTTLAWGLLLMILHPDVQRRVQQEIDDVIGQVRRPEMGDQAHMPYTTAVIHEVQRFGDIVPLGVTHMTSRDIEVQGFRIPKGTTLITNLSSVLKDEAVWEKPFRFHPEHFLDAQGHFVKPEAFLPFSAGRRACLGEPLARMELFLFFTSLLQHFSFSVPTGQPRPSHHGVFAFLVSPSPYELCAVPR

T2 sequence (Q9NZJ5 whole entry): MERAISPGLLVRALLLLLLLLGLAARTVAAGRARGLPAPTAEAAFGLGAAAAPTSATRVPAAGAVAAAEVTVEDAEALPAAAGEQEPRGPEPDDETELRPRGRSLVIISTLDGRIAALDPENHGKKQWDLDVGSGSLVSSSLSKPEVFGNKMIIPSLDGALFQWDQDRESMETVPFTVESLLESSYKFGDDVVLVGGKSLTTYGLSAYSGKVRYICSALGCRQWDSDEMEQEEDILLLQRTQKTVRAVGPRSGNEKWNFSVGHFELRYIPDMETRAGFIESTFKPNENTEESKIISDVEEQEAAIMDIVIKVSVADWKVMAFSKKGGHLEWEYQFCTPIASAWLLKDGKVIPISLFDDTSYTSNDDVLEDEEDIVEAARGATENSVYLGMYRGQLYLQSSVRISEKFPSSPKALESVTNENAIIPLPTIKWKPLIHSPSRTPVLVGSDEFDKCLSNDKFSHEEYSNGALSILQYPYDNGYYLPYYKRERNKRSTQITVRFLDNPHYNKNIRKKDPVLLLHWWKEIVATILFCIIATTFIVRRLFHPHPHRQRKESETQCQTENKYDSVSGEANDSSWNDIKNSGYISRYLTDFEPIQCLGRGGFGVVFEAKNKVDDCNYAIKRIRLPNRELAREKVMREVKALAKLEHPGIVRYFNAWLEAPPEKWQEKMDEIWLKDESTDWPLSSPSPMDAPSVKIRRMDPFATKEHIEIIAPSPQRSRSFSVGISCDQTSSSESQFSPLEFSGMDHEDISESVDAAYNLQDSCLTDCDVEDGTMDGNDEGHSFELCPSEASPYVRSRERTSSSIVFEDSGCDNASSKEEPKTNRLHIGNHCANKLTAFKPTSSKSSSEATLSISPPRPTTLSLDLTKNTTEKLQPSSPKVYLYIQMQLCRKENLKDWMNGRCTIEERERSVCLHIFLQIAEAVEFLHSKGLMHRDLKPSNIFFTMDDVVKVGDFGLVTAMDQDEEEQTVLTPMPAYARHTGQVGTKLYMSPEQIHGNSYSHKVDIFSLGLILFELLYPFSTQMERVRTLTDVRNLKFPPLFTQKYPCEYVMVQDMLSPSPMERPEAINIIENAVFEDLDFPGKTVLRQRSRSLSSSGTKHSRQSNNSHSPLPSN
Chain of Female germline-specific tumor suppressor gld-1 (Q17339 whole entry): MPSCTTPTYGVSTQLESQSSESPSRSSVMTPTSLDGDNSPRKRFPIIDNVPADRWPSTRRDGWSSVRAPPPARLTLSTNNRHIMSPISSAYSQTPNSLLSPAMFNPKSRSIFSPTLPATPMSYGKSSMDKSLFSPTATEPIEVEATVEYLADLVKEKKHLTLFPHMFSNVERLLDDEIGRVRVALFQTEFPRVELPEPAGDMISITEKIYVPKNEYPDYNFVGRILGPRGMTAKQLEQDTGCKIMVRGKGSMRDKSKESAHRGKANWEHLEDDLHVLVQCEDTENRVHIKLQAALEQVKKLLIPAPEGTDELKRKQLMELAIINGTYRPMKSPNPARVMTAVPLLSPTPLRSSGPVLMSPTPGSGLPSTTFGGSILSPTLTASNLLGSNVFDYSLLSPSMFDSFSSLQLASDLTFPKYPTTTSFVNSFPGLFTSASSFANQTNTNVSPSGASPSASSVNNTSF
Chain of Lysosomal acid glucosylceramidase (P04062 whole entry): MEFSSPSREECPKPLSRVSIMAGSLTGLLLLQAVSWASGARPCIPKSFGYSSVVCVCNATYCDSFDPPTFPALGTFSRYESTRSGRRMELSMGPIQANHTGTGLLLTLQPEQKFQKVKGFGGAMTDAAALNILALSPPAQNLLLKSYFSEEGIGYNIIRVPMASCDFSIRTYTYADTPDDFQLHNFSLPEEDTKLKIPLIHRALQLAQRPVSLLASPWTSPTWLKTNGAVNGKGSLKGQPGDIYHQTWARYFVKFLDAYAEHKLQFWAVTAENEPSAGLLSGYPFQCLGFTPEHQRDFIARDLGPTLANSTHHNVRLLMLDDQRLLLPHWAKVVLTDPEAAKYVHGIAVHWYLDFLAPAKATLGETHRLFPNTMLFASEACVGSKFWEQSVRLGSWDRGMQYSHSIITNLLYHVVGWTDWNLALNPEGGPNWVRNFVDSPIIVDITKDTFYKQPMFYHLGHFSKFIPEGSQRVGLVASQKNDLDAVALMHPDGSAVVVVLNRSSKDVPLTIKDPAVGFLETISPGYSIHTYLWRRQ
Chain of Protein Rev (P04618 whole entry): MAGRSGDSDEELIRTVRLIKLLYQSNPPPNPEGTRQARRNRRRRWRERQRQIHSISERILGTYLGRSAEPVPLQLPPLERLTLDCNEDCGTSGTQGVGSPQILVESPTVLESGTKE

COc1cc(/C=C2\SC(=S)N(NC(=O)c3ccncc3)C2=O)ccc1O
EC50 [1]: 8.56 µM (active)
AC50 (HEK293): 222 µM (active)
EC50 [2]: 7.59 µM (active)
IC50 [3]: 48.1 µM (active)

O=C(O)c1ccc(-c2nc(-c3ccccc3)c(-c3cccs3)[nH]2)cc1
EC50 [4]: > 55.7 µM (not active)
EC50 [5]: > 55.7 µM (not active)

COc1cc2c(cc1OC)-c1c(OC)c(OC)c(OC)c3ccnc(c13)C2=O [OXOPURPUREINE]
AC50 (INS1): 3.34 µM (active)
IC50 (Hexokinase HKDC1): 12.1 µM (active)
EC50 [6]: 28.6 µM (inconclusive)
IC50 [7]: 6.15 µM (active)
IC50 (Protein Rev): > 75.4 µM (not active)
EC50 [8]: 4.83 µM (active)

CCN1CCN(CCCNC(=O)c2cc3cc4ccc(OC)cc4nc3o2)CC1
AC50 [9]: 26.5 µM (active)
EC50 [10]: 15.9 µM (not active)
IC50 (Aminopeptidase N): 107 µM (active)
AC50 (Cytochrome P450 1A2): 31.6 µM (inconclusive)
AC50 (Cytochrome P450 2D6): 1.41 µM (inconclusive)
